Experimental data: PubChem BioAssay (NCI)
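Following 48 hours of exposure in 96-well plates, responses at five concentrations were used to interpolate endpoints linearly. At the GI50, growth is halved. TGI marks complete inhibition of growth.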

Legend:
Assay in all cases: inhibition of tumour cell growth, NCI panel, 48 h
K-562 leukemia = tested on: K-562 leukemia
COLO 205 colon = tested on: COLO 205 colon
SNB-19 CNS = tested on: SNB-19 CNS
ACHN renal = tested on: ACHN renal
BT-549 breast = tested on: BT-549 breast
MALME-3M melanoma = tested on: MALME-3M melanoma
MDA-MB-231 breast = tested on: MDA-MB-231 breast
SW-620 colon = tested on: SW-620 colon
SNB-75 CNS = tested on: SNB-75 CNS
SN12C renal = tested on: SN12C renal
HOP-92 NSCLC = tested on: HOP-92 NSCLC
OVCAR-3 ovarian = tested on: OVCAR-3 ovarian
TK-10 renal = tested on: TK-10 renal
NCI-H460 lung = tested on: NCI-H460 lung
A549 NSCLC = tested on: A549 NSCLC
U251 CNS = tested on: U251 CNS
HOP-62 NSCLC = tested on: HOP-62 NSCLC
DU-145 prostate = tested on: DU-145 prostate
UO-31 renal = tested on: UO-31 renal
RXF 393 renal = tested on: RXF 393 renal
RPMI-8226 leukemia = tested on: RPMI-8226 leukemia
T-47D breast = tested on: T-47D breast
NCI-H23 lung = tested on: NCI-H23 lung
M14 melanoma = tested on: M14 melanoma
MDA-MB-435 = tested on: MDA-MB-435
HT29 colon = tested on: HT29 colon
PC-3 prostate = tested on: PC-3 prostate
IGROV1 ovarian = tested on: IGROV1 ovarian
MOLT-4 leukemia = tested on: MOLT-4 leukemia
HCT-116 colon = tested on: HCT-116 colon
HS 578T breast = tested on: HS 578T breast
MCF7 breast = tested on: MCF7 breast
A498 renal = tested on: A498 renal
LOX IMVI melanoma = tested on: LOX IMVI melanoma
SF-268 CNS = tested on: SF-268 CNS
EKVX NSCLC = tested on: EKVX NSCLC
SF-539 CNS = tested on: SF-539 CNS
NCI-H522 lung = tested on: NCI-H522 lung
SR leukemia = tested on: SR leukemia
HCC-2998 colon = tested on: HCC-2998 colon
UACC-257 melanoma = tested on: UACC-257 melanoma
UACC-62 melanoma = tested on: UACC-62 melanoma
CCRF-CEM leukemia = tested on: CCRF-CEM leukemia
SK-MEL-28 melanoma = tested on: SK-MEL-28 melanoma
786-0 renal = tested on: 786-0 renal
SK-OV-3 ovarian = tested on: SK-OV-3 ovarian
HCT-15 colon = tested on: HCT-15 colon
OVCAR-5 ovarian = tested on: OVCAR-5 ovarian
KM12 colon = tested on: KM12 colon
HL-60(TB) leukemia = tested on: HL-60(TB) leukemia
SK-MEL-5 melanoma = tested on: SK-MEL-5 melanoma
SF-295 CNS = tested on: SF-295 CNS
NCI/ADR-RES ovarian = tested on: NCI/ADR-RES ovarian
OVCAR-8 ovarian = tested on: OVCAR-8 ovarian
CAKI-1 renal = tested on: CAKI-1 renal
OVCAR-4 ovarian = tested on: OVCAR-4 ovarian
SK-MEL-2 melanoma = tested on: SK-MEL-2 melanoma
NCI-H226 lung = tested on: NCI-H226 lung

CN1CCN(Cc2ccc(NC(=O)c3cncc(C#Cc4cnc(N)c5ccncc45)c3)cc2C(F)(F)F)CC1
GI50 (K-562 leukemia): 0.0146 µM | TGI (K-562 leukemia): 5.21 µM | GI50 (COLO 205 colon): 0.181 µM | TGI (COLO 205 colon): 1.95 µM | GI50 (SNB-19 CNS): 3.23 µM | TGI (SNB-19 CNS): 9.62 µM | GI50 (ACHN renal): 0.581 µM | TGI (ACHN renal): 4.02 µM | GI50 (BT-549 breast): 2.22 µM | TGI (BT-549 breast): > 46.6 µM | GI50 (MALME-3M melanoma): 0.106 µM | TGI (MALME-3M melanoma): 0.404 µM | GI50 (MDA-MB-231 breast): 0.307 µM | TGI (MDA-MB-231 breast): 1.26 µM | GI50 (SW-620 colon): 0.418 µM | TGI (SW-620 colon): 3.46 µM | GI50 (SNB-75 CNS): 0.898 µM | TGI (SNB-75 CNS): 5.08 µM | GI50 (SN12C renal): 0.837 µM | TGI (SN12C renal): > 50 µM | GI50 (HOP-92 NSCLC): 0.306 µM | TGI (HOP-92 NSCLC): 1.93 µM | GI50 (OVCAR-3 ovarian): 1.53 µM | TGI (OVCAR-3 ovarian): 7.51 µM | GI50 (TK-10 renal): 1.56 µM | TGI (TK-10 renal): 7.84 µM | GI50 (NCI-H460 lung): 0.374 µM | TGI (NCI-H460 lung): 5.81 µM | GI50 (A549 NSCLC): 1.38 µM | TGI (A549 NSCLC): 6.92 µM | GI50 (U251 CNS): 0.782 µM | TGI (U251 CNS): 7.65 µM | GI50 (HOP-62 NSCLC): 1.03 µM | TGI (HOP-62 NSCLC): > 16.6 µM | GI50 (DU-145 prostate): 0.527 µM | TGI (DU-145 prostate): 6.67 µM | GI50 (UO-31 renal): 0.918 µM | TGI (UO-31 renal): 2.49 µM | GI50 (RXF 393 renal): 0.516 µM | TGI (RXF 393 renal): 2.28 µM | GI50 (RPMI-8226 leukemia): 1.09 µM | TGI (RPMI-8226 leukemia): 5.77 µM | GI50 (T-47D breast): 1.75 µM | TGI (T-47D breast): 12.5 µM | GI50 (NCI-H23 lung): 0.9 µM | TGI (NCI-H23 lung): 6.79 µM | GI50 (M14 melanoma): 0.141 µM | TGI (M14 melanoma): 0.547 µM | GI50 (MDA-MB-435): 0.218 µM | TGI (MDA-MB-435): 4 µM | GI50 (HT29 colon): 0.212 µM | TGI (HT29 colon): 6.42 µM | GI50 (PC-3 prostate): 1.77 µM | TGI (PC-3 prostate): 9.18 µM | GI50 (IGROV1 ovarian): 0.331 µM | TGI (IGROV1 ovarian): 2.89 µM | GI50 (MOLT-4 leukemia): 0.328 µM | TGI (MOLT-4 leukemia): 8.68 µM | GI50 (HCT-116 colon): 0.442 µM | TGI (HCT-116 colon): 3.04 µM | GI50 (HS 578T breast): 0.286 µM | TGI (HS 578T breast): 1.98 µM | GI50 (MCF7 breast): 1.93 µM | TGI (MCF7 breast): 8.92 µM | GI50 (A498 renal): 0.279 µM | TGI (A498 renal): 1.7 µM | GI50 (LOX IMVI melanoma): 0.176 µM | TGI (LOX IMVI melanoma): 0.707 µM | GI50 (SF-268 CNS): 0.972 µM | TGI (SF-268 CNS): 6.89 µM | GI50 (EKVX NSCLC): 1.44 µM | TGI (EKVX NSCLC): > 16.8 µM | GI50 (SF-539 CNS): 0.484 µM | TGI (SF-539 CNS): 2.03 µM | GI50 (NCI-H522 lung): 0.897 µM | TGI (NCI-H522 lung): 8.51 µM | GI50 (SR leukemia): 0.567 µM | TGI (SR leukemia): > 24.5 µM | GI50 (HCC-2998 colon): 1.78 µM | TGI (HCC-2998 colon): 7.89 µM | GI50 (UACC-257 melanoma): 0.573 µM | TGI (UACC-257 melanoma): 4.68 µM | GI50 (UACC-62 melanoma): 0.227 µM | TGI (UACC-62 melanoma): 1.86 µM | GI50 (CCRF-CEM leukemia): 0.554 µM | TGI (CCRF-CEM leukemia): 11.6 µM | GI50 (SK-MEL-28 melanoma): 0.245 µM | TGI (SK-MEL-28 melanoma): 2.18 µM | GI50 (786-0 renal): 1.73 µM | TGI (786-0 renal): 7.48 µM | GI50 (SK-OV-3 ovarian): 0.687 µM | TGI (SK-OV-3 ovarian): > 50 µM | GI50 (HCT-15 colon): 1.42 µM | TGI (HCT-15 colon): 5.84 µM | GI50 (OVCAR-5 ovarian): 0.855 µM | TGI (OVCAR-5 ovarian): > 50 µM | GI50 (KM12 colon): 0.027 µM | TGI (KM12 colon): 5.52 µM | GI50 (HL-60(TB) leukemia): 0.387 µM | TGI (HL-60(TB) leukemia): 2.89 µM | GI50 (SK-MEL-5 melanoma): 1.18 µM | TGI (SK-MEL-5 melanoma): 3.93 µM | GI50 (SF-295 CNS): 2.16 µM | TGI (SF-295 CNS): > 50 µM | GI50 (NCI/ADR-RES ovarian): 6.74 µM | TGI (NCI/ADR-RES ovarian): 16.5 µM | GI50 (OVCAR-8 ovarian): 1.42 µM | TGI (OVCAR-8 ovarian): 8.86 µM | GI50 (CAKI-1 renal): 1.59 µM | TGI (CAKI-1 renal): > 16.3 µM | GI50 (OVCAR-4 ovarian): 0.283 µM | TGI (OVCAR-4 ovarian): 6.32 µM | GI50 (SK-MEL-2 melanoma): 0.3 µM | TGI (SK-MEL-2 melanoma): 1.07 µM

CCOC(=O)CSc1nc(-c2ccccc2)c(C#N)c(=O)[nH]1
TGI (K-562 leukemia): > 100 µM | TGI (COLO 205 colon): > 100 µM | TGI (SNB-19 CNS): > 100 µM | TGI (ACHN renal): > 100 µM | TGI (BT-549 breast): > 100 µM | TGI (MDA-MB-231 breast): > 100 µM | TGI (SW-620 colon): > 100 µM | TGI (SNB-75 CNS): > 100 µM | TGI (SN12C renal): > 100 µM | TGI (HOP-92 NSCLC): > 100 µM | TGI (OVCAR-3 ovarian): > 100 µM | TGI (TK-10 renal): > 100 µM | TGI (NCI-H460 lung): > 100 µM | TGI (A549 NSCLC): > 100 µM | TGI (U251 CNS): > 100 µM | TGI (HOP-62 NSCLC): > 100 µM | TGI (DU-145 prostate): > 100 µM | TGI (UO-31 renal): > 100 µM | TGI (RXF 393 renal): > 100 µM | TGI (RPMI-8226 leukemia): > 100 µM | TGI (T-47D breast): > 100 µM | TGI (NCI-H23 lung): > 100 µM | TGI (M14 melanoma): > 100 µM | TGI (MDA-MB-435): > 100 µM | TGI (NCI-H226 lung): > 100 µM | TGI (HT29 colon): > 100 µM | TGI (PC-3 prostate): > 100 µM | TGI (IGROV1 ovarian): > 100 µM | TGI (MOLT-4 leukemia): > 100 µM | TGI (HCT-116 colon): > 100 µM | TGI (HS 578T breast): > 100 µM | TGI (MCF7 breast): > 100 µM | TGI (A498 renal): > 100 µM | TGI (SF-268 CNS): > 100 µM | TGI (EKVX NSCLC): > 100 µM | TGI (SF-539 CNS): > 100 µM | TGI (NCI-H522 lung): 47 µM | TGI (SR leukemia): > 100 µM | TGI (HCC-2998 colon): > 100 µM | TGI (UACC-257 melanoma): > 100 µM | TGI (UACC-62 melanoma): > 100 µM | TGI (CCRF-CEM leukemia): > 100 µM | TGI (SK-MEL-28 melanoma): > 100 µM | TGI (786-0 renal): > 100 µM | TGI (SK-OV-3 ovarian): > 100 µM | TGI (HCT-15 colon): > 100 µM | TGI (OVCAR-5 ovarian): > 100 µM | TGI (KM12 colon): > 100 µM | TGI (HL-60(TB) leukemia): > 100 µM | TGI (SK-MEL-5 melanoma): > 100 µM | TGI (SF-295 CNS): > 100 µM | TGI (NCI/ADR-RES ovarian): > 100 µM | TGI (OVCAR-8 ovarian): > 100 µM | TGI (CAKI-1 renal): > 100 µM | TGI (OVCAR-4 ovarian): > 100 µM | TGI (SK-MEL-2 melanoma): > 100 µM
